≈ marks a conversion by molar mass, not a printed value.
How the values were obtained:
[1] = system: Proteus vulgaris IAM 1025; assay: In vitro antibacterial activity, two-fold agar-plate dilution method (MIC), Proteus vulgaris; type: cell-based; conditions: IAM1025, heart infusion agar, 37° C. for 20 hours, approximately 10^6 cells per ml, read-out: MIC (minimal inhibitory concentration)
Method: (§1) In vitro antibacterial activity was determined by the two-fold agar-plate dilution method as described below. One loopful of an overnight culture of each test strain in Trypticase-soy broth (approximately 10^6 […] cells per ml.) was streaked on heart infusion agar (HI-agar) containing graded concentrations of antibiotics, and the minimal inhibitory concentration (MIC) was expressed in […] of μg/ml after incubation at 37° C. for 20 hours.

[2] = system: Pseudomonas aeruginosa NCTC-10490; assay: In vitro antibacterial activity, two-fold agar-plate dilution method (MIC), Pseudomonas aeruginosa; type: cell-based; conditions: NCTC10490, heart infusion agar, 37° C. for 20 hours, approximately 10^6 cells per ml, read-out: MIC (minimal inhibitory concentration)
Method: as §1

SMILES	MIC [1]	MIC [2]
CCO/N=C(\C(=O)NC1C(=O)N2C(C(=O)O)=C(CSc3nncs3)CSC12)c1nccc(N)n1 (stereo not drawn) [compound 1, 7-[2-(4-Aminopyrimidin-2-yl)-2-ethoxyiminoacetamido]-3-(1,3,4-thiadiazol-2-ylthiomethyl)-3-cephem-4-carboxylic acid (syn isomer)]	< 0.025 µg/mL	< 1.56 µg/mL
C=CCn1nnnc1SCC1=C(C(=O)O)N2C(=O)C(NC(=O)/C(=N\OC)c3nccc(N)n3)C2SC1 (stereo not drawn) [compound 2, 7-[2-(4-Aminopyrimidin-2-yl)-2-methoxyiminoacetamido]-3-[(1-allyl-1H-tetrazol-5-yl)thiomethyl]-3-cephem-4-carboxylic acid (syn isomer)]	< 0.025 µg/mL	6.25 µg/mL (≈ 11.7 µM)
C=CCO/N=C(\C(=O)NC1C(=O)N2C(C(=O)O)=C(CSc3nncs3)CSC12)c1nccc(N)n1 (stereo not drawn) [compound 3, 7-[2-Allyloxyimino-2-(4-aminopyrimidin-2-yl)acetamido]-3-(1,3,4-thiadiazol-2-ylthiomethyl)-3-cephem-4-carboxylic acid (syn isomer)]	0.05 µg/mL (≈ 0.0935 µM)	< 1.56 µg/mL
CCCO/N=C(\C(=O)NC1C(=O)N2C(C(=O)O)=C(CSc3nncs3)CSC12)c1nccc(N)n1 (stereo not drawn) [compound 4, 7-[2-(4-Aminopyrimidin-2-yl)-2-propoxyiminoacetamido]-3-(1,3,4-thiadiazol-2-ylthiomethyl)-3-cephem-4-carboxylic acid (syn isomer)]	< 0.025 µg/mL	< 1.56 µg/mL
Nc1cccc(/C(=N/OCC(F)(F)F)C(=O)NC2C(=O)N3C(C(=O)O)=C(CSc4nnnn4CC(=O)O)CSC23)n1 (stereo not drawn) [compound 5, 7-[2-(6-Aminopyridin-2-yl)-2-(2,2,2-trifluoroethoxyimino)acetamido]-3-[(1-carboxymethyl-1H-tetrazol-5-yl)thiomethyl]-3-cephem-4-carboxylic acid (syn isomer)]	0.025 µg/mL (≈ 0.0405 µM)	< 1.56 µg/mL
CO/N=C(\C(=O)NC1C(=O)N2C(C(=O)O)=C(CSc3nnnn3C)CSC12)c1cccc(N)n1 (stereo not drawn) [compound 6, 7-[2-(6-aminopyridin-2-yl)-2-methoxyiminoacetamido]-3-(1-methyl-1H-tetrazol-5-yl)thiomethyl-3-cephem-4-carboxylic acid (syn isomer)]	≤ 0.025 µg/mL	≤ 1.56 µg/mL
CON=C(C(=O)NC1C(=O)N2C(C(=O)O)=CCS[C@H]12)c1cccc(N)n1 (stereo partly shown) [compound 7, 7-[2-(6-aminopyridin-2-yl)-2-methoxyiminoacetamido]-3-cephem-4-carboxylic acid]	≤ 0.025 µg/mL	6.25 µg/mL (≈ 16.6 µM)
CO/N=C(\C(=O)NC1C(=O)N2C(C(=O)O)=C(COC(N)=O)CSC12)c1cccc(N)n1 (stereo not drawn) [compound 8, 7-[2-(6-aminopyridin-2-yl)-2-methoxyiminoacetamido]-3-carbamoyloxymethyl-3-cephem-4-carboxylic acid (syn isomer)]	0.05 µg/mL (≈ 0.111 µM)	3.13 µg/mL (≈ 6.95 µM)
CO/N=C(\C(=O)NC1C(=O)N2C(C(=O)O)=C(COC(C)=O)CSC12)c1cccc(N)n1 (stereo not drawn) [compound 9, 7-[2-(6-aminopyridin-2-yl)-2-methoxyiminoacetamido]cephalosporanic acid (syn isomer)]	≤ 0.025 µg/mL	≤ 1.56 µg/mL
CON=C(C(=O)NC1C(=O)N2C(C(=O)O)=C(CSc3nnnn3C)CS[C@H]12)c1ccnc(N)n1 (stereo partly shown) [compound 10, 7-[2-(2-aminopyrimidin-4-yl)-2-methoxyiminoacetamido]-3-(1-methyl-1H-tetrazol-5-yl)thiomethyl-3-cephem-4-carboxylic acid]	0.2 µg/mL (≈ 0.395 µM)	6.25 µg/mL (≈ 12.3 µM)
CO/N=C(\C(=O)NC1C(=O)N2C(C(=O)O)=C(CSc3nnnn3C)CSC12)c1nccc(N)n1 (stereo not drawn) [compound 11, 7-[2-(4-aminopyrimidin-2-yl)-2-methoxyiminoacetamido]-3-(1-methyl-1H-tetrazol-5-ylthiomethyl)-3-cephem-4-carboxylic acid (syn isomer)]	≤ 0.025 µg/mL	< 1.56 µg/mL
C=CCO/N=C(\C(=O)NC1C(=O)N2C(C(=O)O)=C(CSc3nnnn3C)CSC12)c1cccc(N)n1 (stereo not drawn) [compound 12, 7-[2-allyloxyimino-2-(6-aminopyridin-2-yl)acetamido]-3-(1-methyl-1H-tetrazol-5-ylthiomethyl)-3-cephem-4-carboxylic acid (syn isomer)]	0.05 µg/mL (≈ 0.0941 µM)	≤ 1.56 µg/mL
C#CCO/N=C(\C(=O)NC1C(=O)N2C(C(=O)O)=C(CSc3nnnn3C)CSC12)c1cccc(N)n1 (stereo not drawn) [compound 13, 7-[2-(6-aminopyridin-2-yl)-2-propargyloxyiminoacetamido]-3-(1-methyl-1H-tetrazol-5-ylthiomethyl)-3-cephem-4-carboxylic acid (syn isomer)]	0.05 µg/mL (≈ 0.0944 µM)	≤ 1.56 µg/mL
CCO/N=C(\C(=O)NC1C(=O)N2C(C(=O)O)=CC(C)SC12)c1cccc(N)n1 (stereo not drawn) [compound 14, 7-[2-(6-aminopyridin-2-yl)-2-ethoxyiminoacetamido]-2-methyl-3-cephem-4-carboxylic acid (syn isomer)]	0.05 µg/mL (≈ 0.123 µM)	< 1.56 µg/mL

Reference: US4267176A, “Amino or acylamino-substituted pyrimidinyl cephalosporanic acid derivatives and pharmaceutical compositions thereof” (Fujisawa Pharmaceutical Co., Ltd., priority 1977, dated 1981)
